Patent publication US20250188062A1, “TRIAZINE COMPOUNDS AND METHODS OF MAKING AND USING THE SAME” (Athos Therapeutics, Inc., priority 2021, published 2025)

Experiments:
JMJD3 = JMJD3 (Homo sapiens, UniProt O15054); assay: JMJD3 binding assay (Kd, affinity beads, qPCR readout); settings: 11-point 3-fold dilution series, 0.9% DMSO, room temperature 1 hour; read-out: JMJD3 Affinity (binding constant, Kd)
Method: Test compounds were prepared as 111X stocks in 100% DMSO. Kd values are determined using an 11-point 3-fold compound dilution series with three DMSO control points. All compounds for Kd measurements were distributed by acoustic transfer (non-contact dispensing) in 100% DMSO. The compounds were then diluted directly into the assays such that the final concentration of DMSO was 0.9%. All reactions were performed in polypropylene 384-well plate. Each was a final volume of 0.02 ml. The assay plates were incubated at room temperature with shaking for 1 hour and the affinity beads were washed with wash buffer (lx PBS, 0.05% Tween 20). The beads were then re-suspended in elution buffer (lx PBS, 0.05% Tween 20, 0.5 μM non-biotinylated affinity ligand) and incubated at room temperature with shaking for 30 minutes. The kinase concentration in the eluates was measured by qPCR. Binding constants are calculated with a standard dose-response curve using the Hill equation:
The Hill Slope was set to −1. Curves were fitted using a non-linear least square fit with the Levenberg-Marquardt algorithm. The binding data is summarized in Table 2 where A is less than 100 nM, B is 100 to 500 nM, and C is greater than 500 nM.

THP-1 human monocytes [1] = assay: TNF-alpha ELISA (Quantikine) in LPS-treated THP-1 cells; type: cell-based; settings: 1 μM, 4 hrs before LPS 50 ng/ml; PMA 25 nM; ELISA of supernatants; FIG. 4A-C, p<0.05 / p<0.01
Method: THP-1 cells were grown to confluence and plated in 6-well plates. PMA (25 nM) was added to the medium and replaced with non-PMA containing medium 24 hrs later. ATH compounds (1 μM) or vehicle (0.1% DMSO) were added and allowed to incubate. After 4 hrs LPS (50 ng/ml) was added without replacement of the medium and supernatants were collected after 4 and […]. Media were placed on ice for cytokine detection using ELISA (Quantikine, R&D Systems).
JMJD3 inhibitors Compound 89, Compound 91 (FIG. 4A, p<005), Compound 97, Compound 92, Compound 93 (FIG. 4B, p<0.01), and Compound 94 (FIG. 4C, p<0.01) show suppression of TNF-alpha (TNFA) expression after LPS (lipopolysaccharide) treatment, in THP-1 human monocytes (FIG. 4A-C, p<0.05 for both).

THP-1 human monocytes [2] = assay: Cellular assay for anti-inflammatory properties: cytokine ELISA multiplex in LPS-stimulated PMA-differentiated THP-1 macrophages; type: cell-based; settings: 1 μM, 4 hours before 100 ng/mL LPS for 4 or 24 hours; cytokine protein in media vs LPS+PMA only
Method: The anti-inflammatory properties of five JMJD3 inhibitors (99, 92, 93, 98, and 95, in no particularly order) were evaluated in an immune cellular assay targeting key pro-inflammatory cytokines involved in the pathogenesis of multiple autoimmune disease.
Specifically, THP-1 human monocytes were grown in 6-well plates (RPMI 1640+10% FBS+1% P/S). After washing with PBS the THP-1 cells were differentiated into macrophages using 20 nM of phorbol 12-myristate 13-acetate (PMA) for 24 hrs. 99, 92, 93, 98, and 95) (1 μM) were added into the macrophages, which are incubated for 4 hours before the addition of 100 ng/mL lipopolysaccharide (LPS) for either 4 or 24 hours. Next, the macrophages are collected via centrifugation at 1.2K rpm for 5 min and use their media to evaluate cytokine protein levels by using the Bio-rad Cytokine ELISA multiplex assay (cat. No M5000031YV). The supernatants from macrophages treated only with only LPS+PMA were collected and used as negative controls.

Naïve CD4+ T human cells = assay: Cellular assay for FoxP3 induction activity (qPCR of FoxP3 mRNA); type: cell-based; settings: CD4+ T cells activated with anti-CD3, IL-2 and TGF-β for 5 days; FoxP3 mRNA by qPCR on day 5; FIG. 3
Method: CD4+CD25+FOXP3+ regulatory T cells (Tregs) suppress pro-inflammatory cells and signals and are critical mediators of tolerance, inhibiting excessive inflammation and autoimmunity. Also, treatment of CD4+ T cells with interleukin 2 (IL-2) and transforming growth factor beta (TGF-β) signaling are important for FOXP3 induction and Treg formation.
Naïve CD4+ T human cells (cat. no 2W-200, Lonza) were cultured and activated with artificial antigen-presenting cells and soluble anti-CD3 (100 ng/ml) in the presence of IL-2 (300 U/ml) and TGF-β (10 ng/ml) for 5 days. On day 3, cells were transfected with an anti-sense RNA against JMJD3 (cat. No 1299001, Thermo) using Lipofectamine 2000 (cat. No 11668027, Thermo). On day 5, RNA was extracted and qPCR analysis was performed to evaluate FoxP3 mRNA levels by using the following primers: F: 5′-TCCACAACATGCGACCCCCTTTCA-3′ and R: 5′-ACAGCCCCCTTCTCGCTCTCCA-3′ having a 217 bp product. All JMJD3 inhibitors (99, 92, 93, 98, and 95) in CD4+ T cells induced 7-fold FoxP3 expression levels, thus moving towards differentiation and formation of Tregs. […] Thus, genetic or pharmacological inhibition of […] will result into FoxP3 activation and induction of Treg formation. Based on this evidence, JMJD3 inhibitors (99, 92, 93, 98, and 95)) could be used in autoimmune diseases where T-regulatory cells have therapeutic potential. There is increasing evidence and literature derived from human clinical studies (Arellano B et al., Regulatory T Cell-based Therapies for Autoimmunity, Discov Med, 22:73-80, 2016).

Sequence of JMJD3 (O15054 whole entry, species assumed): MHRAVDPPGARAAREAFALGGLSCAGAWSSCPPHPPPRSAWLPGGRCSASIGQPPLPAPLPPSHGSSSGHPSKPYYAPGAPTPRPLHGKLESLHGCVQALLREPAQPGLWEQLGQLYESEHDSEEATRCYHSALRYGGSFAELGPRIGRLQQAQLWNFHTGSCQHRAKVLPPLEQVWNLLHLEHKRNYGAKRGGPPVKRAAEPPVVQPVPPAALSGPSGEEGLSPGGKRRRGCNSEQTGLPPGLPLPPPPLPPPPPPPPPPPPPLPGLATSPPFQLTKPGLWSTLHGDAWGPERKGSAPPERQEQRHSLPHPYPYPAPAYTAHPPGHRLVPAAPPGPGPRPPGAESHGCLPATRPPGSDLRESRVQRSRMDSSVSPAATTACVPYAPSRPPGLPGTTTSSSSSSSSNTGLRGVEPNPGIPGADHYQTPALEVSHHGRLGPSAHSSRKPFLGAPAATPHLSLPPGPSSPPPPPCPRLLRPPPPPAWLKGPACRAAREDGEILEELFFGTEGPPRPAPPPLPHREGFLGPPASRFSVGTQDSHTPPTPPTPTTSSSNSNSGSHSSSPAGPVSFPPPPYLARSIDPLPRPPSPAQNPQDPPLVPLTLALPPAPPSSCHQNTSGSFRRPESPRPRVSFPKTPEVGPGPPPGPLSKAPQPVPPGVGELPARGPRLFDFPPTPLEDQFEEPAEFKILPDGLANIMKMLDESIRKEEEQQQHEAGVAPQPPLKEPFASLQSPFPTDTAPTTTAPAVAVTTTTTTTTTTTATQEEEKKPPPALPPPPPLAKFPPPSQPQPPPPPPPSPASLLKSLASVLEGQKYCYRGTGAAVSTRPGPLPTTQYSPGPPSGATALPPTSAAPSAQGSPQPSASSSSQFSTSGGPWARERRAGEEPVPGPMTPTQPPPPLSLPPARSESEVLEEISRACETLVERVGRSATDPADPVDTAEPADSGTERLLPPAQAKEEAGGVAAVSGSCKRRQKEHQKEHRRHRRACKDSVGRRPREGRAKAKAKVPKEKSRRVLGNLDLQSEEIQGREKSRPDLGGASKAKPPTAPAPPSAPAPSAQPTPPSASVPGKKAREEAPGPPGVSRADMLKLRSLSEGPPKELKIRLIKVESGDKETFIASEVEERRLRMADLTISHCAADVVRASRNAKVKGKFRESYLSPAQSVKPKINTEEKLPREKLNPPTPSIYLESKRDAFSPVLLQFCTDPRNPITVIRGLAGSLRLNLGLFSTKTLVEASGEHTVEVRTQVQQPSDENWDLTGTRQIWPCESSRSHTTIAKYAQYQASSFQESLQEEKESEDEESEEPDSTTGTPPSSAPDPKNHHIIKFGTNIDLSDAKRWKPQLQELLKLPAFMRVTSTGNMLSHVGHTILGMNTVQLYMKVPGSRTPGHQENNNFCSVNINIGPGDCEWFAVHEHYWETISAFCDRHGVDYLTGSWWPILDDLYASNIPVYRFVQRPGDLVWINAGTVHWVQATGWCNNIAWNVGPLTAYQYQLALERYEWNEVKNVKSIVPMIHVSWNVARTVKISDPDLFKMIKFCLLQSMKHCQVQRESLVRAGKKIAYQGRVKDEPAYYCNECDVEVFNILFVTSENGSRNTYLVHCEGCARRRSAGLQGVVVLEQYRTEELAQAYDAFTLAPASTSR

`CCOC(=O)CCNc1nc(N2CCc3ccccc3CC2)nc(-n2cccn2)n1` [Compound 1, Ethyl 3-((4-(1H-pyrazol-1-yl)-6-(1,2,4,5-tetrahydro-3H-benzo[d]azepin-3-yl)-1,3,5-triazin-2-yl)amino)propanoate] was tested, and the Kd (JMJD3) was < 100 nM.

`CCOC(=O)CCNc1nc(-n2cccn2)nc(-n2cccn2)n1` [Compound 2, Ethyl 3-((4,6-di(1H-pyrazol-1-yl)-1,3,5-triazin-2-yl)amino)propanoate] was tested, and the Kd (JMJD3) was 100 to 500 nM.

For `CCOC(=O)CCNc1nc(-n2cccn2)nc(-n2ccc3ccccc32)n1` [Compound 6, Ethyl 3-((4-(1H-indol-1-yl)-6-(1H-pyrazol-1-yl)-1,3,5-triazin-2-yl)amino)propanoate], the Kd (JMJD3) was < 100 nM.

With `CCOC(=O)CCNc1nc(-c2cc(F)cc(F)c2)nc(-n2cccn2)n1` [Compound 8, Ethyl 3-((4-(3,5-difluorophenyl)-6-(1H-pyrazol-1-yl)-1,3,5-triazin-2-yl)amino)propanoate] the Kd (JMJD3) was < 100 nM.

With `c1ccc2c(c1)ccn2-c1nc(N2CCNC3(COC3)C2)nc(-n2cccn2)n1` [Compound 60, 8-(4-(1H-Indol-1-yl)-6-(1H-pyrazol-1-yl)-1,3,5-triazin-2-yl)-2-oxa-5,8-diazaspiro[3.5]nonane] the Kd (JMJD3) was < 100 nM.

With `CN1CCN(c2nc(-c3cc(F)cc(F)c3)nc(-n3cccn3)n2)CC1` [Compound 80, 2-(3,5-Difluorophenyl)-4-(4-methylpiperazin-1-yl)-6-(1H-pyrazol-1-yl)-1,3,5-triazine] the Kd (JMJD3) was 100 to 500 nM.

In the case of `COCCNc1nc(-n2cccn2)nc(-n2ccc3ccccc32)n1` [Compound 89, 4-(1H-indol-1-yl)-N-(2-methoxyethyl)-6-(1H-pyrazol-1-yl)-1,3,5-triazin-2-amine], the “suppression of TNF-alpha (TNFA) expression after LPS treatment” value (from here on “suppression … after LPS treatment”) (THP-1 human monocytes [1]) is reported as “suppression” and the Kd (JMJD3) is reported as < 100 nM.

Compound `c1ccc2c(c1)ccn2-c1nc(N2CCNCC2)nc(-n2cccn2)n1` [Compound 90, 1-(4-(Piperazin-1-yl)-6-(1H-pyrazol-1-yl)-1,3,5-triazin-2-yl)-1H-indole] has a Kd (JMJD3) of 100 to 500 nM.

In the case of `NC(=O)CCNc1nc(-n2cccn2)nc(-n2ccc3ccccc32)n1` [Compound 91, 3-((4-(1H-Indol-1-yl)-6-(1H-pyrazol-1-yl)-1,3,5-triazin-2-yl)amino)propanamide], the “suppression … after LPS treatment” value (THP-1 human monocytes [1]) is reported as “suppression” and the Kd (JMJD3) is reported as 100 to 500 nM.

`Fc1cc(F)cc(-c2nc(N3CCOCC3)nc(-n3cccn3)n2)c1` [Compound 92, 4-(4-(3,5-Difluorophenyl)-6-(1H-pyrazol-1-yl)-1,3,5-triazin-2-yl)morpholine] was tested, and the “suppression of TNF-alpha (TNFA)” value (THP-1 human monocytes [2]) was “suppression”, the “suppression of interleukin 1beta (IL1B)” value (THP-1 human monocytes [2]) was “suppression” and the “suppression of interleukin 5 (IL5)” value (THP-1 human monocytes [2]) was “suppression”. For the same compound, the “suppression of interleukin 6 (IL6)” value (THP-1 human monocytes [2]) was “suppression”, the “suppression of interleukin 8 (IL8)” value (THP-1 human monocytes [2]) was “suppression” and the “suppression of interleukin 13 (IL13)” value (THP-1 human monocytes [2]) was “suppression”. The “FoxP3 expression levels (induction)” value (Naïve CD4+ T human cells) was 7 fold, the “suppression … after LPS treatment” value (THP-1 human monocytes [1]) was “suppression” and the Kd (JMJD3) was 100 to 500 nM.

For `Fc1cc(F)cc(-c2nc(N3CCC3)nc(-n3cccn3)n2)c1` [Compound 93, 2-(Azetidin-1-yl)-4-(3,5-difluorophenyl)-6-(1H-pyrazol-1-yl)-1,3,5-triazine], the “suppression of TNF-alpha (TNFA)” value (THP-1 human monocytes [2]) was “suppression”, the “suppression of interleukin 1beta (IL1B)” value (THP-1 human monocytes [2]) was “suppression” and the “suppression of interleukin 5 (IL5)” value (THP-1 human monocytes [2]) was “suppression”. For the same compound, the “suppression of interleukin 6 (IL6)” value (THP-1 human monocytes [2]) was “suppression”, the “suppression of interleukin 8 (IL8)” value (THP-1 human monocytes [2]) was “suppression” and the “suppression of interleukin 13 (IL13)” value (THP-1 human monocytes [2]) was “suppression”. The “FoxP3 expression levels (induction)” value (Naïve CD4+ T human cells) was 7 fold, the “suppression … after LPS treatment” value (THP-1 human monocytes [1]) was “suppression” and the Kd (JMJD3) was < 100 nM.

With `c1ccc2c(c1)ccn2-c1nc(N2CCOCC2)nc(-n2cccn2)n1` [Compound 94, 4-(4-(1H-Indol-1-yl)-6-(1H-pyrazol-1-yl)-1,3,5-triazin-2-yl)morpholine] the “suppression … after LPS treatment” value (THP-1 human monocytes [1]) was “suppression” and the Kd (JMJD3) was 100 to 500 nM.

Compound `NC(=O)CCNc1nc(-c2cc(F)cc(F)c2)nc(-n2cccn2)n1` [Compound 96, 3-((4-(3,5-Difluorophenyl)-6-(1H-pyrazol-1-yl)-1,3,5-triazin-2-yl)amino)propanamide] has a Kd (JMJD3) of 100 to 500 nM.

For `COCCCNc1nc(-n2cccn2)nc(-n2ccc3ccccc32)n1` [Compound 97, 4-(1H-Indol-1-yl)-N-(3-methoxypropyl)-6-(1H-pyrazol-1-yl)-1,3,5-triazin-2-amine], the “suppression … after LPS treatment” value (THP-1 human monocytes [1]) was “suppression” and the Kd (JMJD3) was 100 to 500 nM.

With `COCNc1nc(-n2cccn2)nc(-n2ccc3ccccc32)n1` [Compound 98, 4-(1H-indol-1-yl)-N-(methoxymethyl)-6-(1H-pyrazol-1-yl)-1,3,5-triazin-2-amine] the “suppression of TNF-alpha (TNFA)” value (THP-1 human monocytes [2]) was “suppression”, the “suppression of interleukin 1beta (IL1B)” value (THP-1 human monocytes [2]) was “suppression” and the “suppression of interleukin 5 (IL5)” value (THP-1 human monocytes [2]) was “suppression”. For the same compound, the “suppression of interleukin 6 (IL6)” value (THP-1 human monocytes [2]) was “suppression”, the “suppression of interleukin 8 (IL8)” value (THP-1 human monocytes [2]) was “suppression” and the “suppression of interleukin 13 (IL13)” value (THP-1 human monocytes [2]) was “suppression”. For the same compound, the “FoxP3 expression levels (induction)” value (Naïve CD4+ T human cells) was 7 fold.

With `Fc1cc(F)cc(-c2nc(N3CCNCC3)nc(-n3cccn3)n2)c1` [Compound 99, 2-(3,5-difluorophenyl)-4-(piperazin-1-yl)-6-(1H-pyrazol-1-yl)-1,3,5-triazine] the “suppression of TNF-alpha (TNFA)” value (THP-1 human monocytes [2]) was “suppression”, the “suppression of interleukin 1beta (IL1B)” value (THP-1 human monocytes [2]) was “suppression” and the “suppression of interleukin 5 (IL5)” value (THP-1 human monocytes [2]) was “suppression”. The “suppression of interleukin 6 (IL6)” value (THP-1 human monocytes [2]) was “suppression”, the “suppression of interleukin 8 (IL8)” value (THP-1 human monocytes [2]) was “suppression” and the “suppression of interleukin 13 (IL13)” value (THP-1 human monocytes [2]) was “suppression”. The “FoxP3 expression levels (induction)” value (Naïve CD4+ T human cells) was 7 fold.
